For one assay, the target named is Paired box protein Pax-8 (Homo sapiens, UniProt Q06710). Kind of assay: inhibitors of PAX8-driven TPO luciferase reporter, dose response, RMG-I cells, cherry-pick (AID 687027).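 Note: luciferase reporter driven by Pax8 target thyroperoxidase promoter measured by SteadyGlo luminescence.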 The format is functional, cell-based.
The nature of assay [1]: NIH:OVCAR-3 ovarian cancer cell cytotoxicity, dose response, PAX8 inhibitor project, plate reader, dry powder samples (AID 743044). The format is functional, cell-based.
Assay [2] can be described thus: cytotoxicity in OVCAR8 ovarian cancer cells, dose response, PAX8 project, cell-based, plate reader, dry powder samples (AID 743197). It is filed as functional. The note with it: OVCAR-8.
A short description of assay [3]: IGROV1 ovarian cancer cell cytotoxicity, dose response, PAX8 inhibitor project, plate reader, dry powder samples (AID 743043). The note with it: IGROV-1. The format is functional, cell-based.
For assay [4], the target named is Luciferin 4-monooxygenase (Photinus pyralis, UniProt P08659). Put plainly: firefly luciferase enzyme inhibitors, dose response, biochemical, luminescence (AID 1891).
Sequence of Luciferin 4-monooxygenase (P08659 whole entry): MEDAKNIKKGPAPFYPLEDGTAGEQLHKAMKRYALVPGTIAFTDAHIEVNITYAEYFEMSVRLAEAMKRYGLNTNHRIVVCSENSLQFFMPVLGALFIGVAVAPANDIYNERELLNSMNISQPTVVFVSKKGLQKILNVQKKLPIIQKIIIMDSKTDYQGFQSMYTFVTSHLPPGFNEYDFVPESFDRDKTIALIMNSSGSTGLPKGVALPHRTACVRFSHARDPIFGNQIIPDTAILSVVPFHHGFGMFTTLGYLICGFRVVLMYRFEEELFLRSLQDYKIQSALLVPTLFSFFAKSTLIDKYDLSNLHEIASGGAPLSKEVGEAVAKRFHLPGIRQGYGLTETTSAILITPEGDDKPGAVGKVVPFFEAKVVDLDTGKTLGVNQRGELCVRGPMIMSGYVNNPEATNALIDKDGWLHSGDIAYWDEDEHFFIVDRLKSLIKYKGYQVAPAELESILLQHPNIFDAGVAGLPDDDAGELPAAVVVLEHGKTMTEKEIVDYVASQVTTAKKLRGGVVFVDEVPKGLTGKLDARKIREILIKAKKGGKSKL
The nature of assay [5]: MC4R antagonists, dose response, counter-screen for LGR2 antagonist project, cell-based, plate reader, cherry pick (AID 743444).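 Note: transfected HEK 293 cells stimulated with alpha-MSH peptide; potency of inhibitors of the alpha-MSH evoked signal.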 It is filed as functional.
A short description of assay [6]: Luminescence Cell-Based Dose Confirmation HTS to Identify Inhibitors of Platelet Dense Granule Release. [Related pubchem assays: 1663 (Primary HTS), 1678 (Summary of Project)]. It is filed as functional.
A short description of assay [7]: A549 cell cytotoxicity, dose response, cytotoxicity control, plate reader, cherry-pick, antagonist series (AID 743412). It is filed as functional, cell-based.
A short description of assay [8]: HepG2 cell cytotoxicity, dose response, cytotoxicity control, plate reader, cherry-pick, antagonist series (AID 743416). The format is functional, cell-based.
The nature of assay [9]: LGR2 antagonists, dose response, cell-based, HEK293, CRE-luciferase reporter, cherry pick, set 2 (AID 743343).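 Note: transfected cells were stimulated with diluted bursicon conditioned medium after compound addition.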 It is filed as functional. For orientation: In a reporter assay the amount or activity of a reporter protein is the signal.
A short description of assay [10]: HEK293 cell cytotoxicity, dose response, cytotoxicity control, plate reader, cherry-picked samples (AID 743446). It is filed as functional, cell-based.
A further assay concerns the target Tumor necrosis factor (Homo sapiens, UniProt P01375). Kind of assay: TNFa-triggered NF-kB activation inhibitors, SAR follow-up, cell-based, revised (AID 2337). It is filed as functional.
Assay [11] has as its target T1, COUP transcription factor 2 (Homo sapiens, UniProt P24468).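 Note: HEK293 cells transiently cotransfected with COUP-TFII expression vector and reporter; luciferase reporter luminescence driven by COUP-TFII from the pX2-168 reporter plasmid.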
T1 sequence (P24468 whole entry): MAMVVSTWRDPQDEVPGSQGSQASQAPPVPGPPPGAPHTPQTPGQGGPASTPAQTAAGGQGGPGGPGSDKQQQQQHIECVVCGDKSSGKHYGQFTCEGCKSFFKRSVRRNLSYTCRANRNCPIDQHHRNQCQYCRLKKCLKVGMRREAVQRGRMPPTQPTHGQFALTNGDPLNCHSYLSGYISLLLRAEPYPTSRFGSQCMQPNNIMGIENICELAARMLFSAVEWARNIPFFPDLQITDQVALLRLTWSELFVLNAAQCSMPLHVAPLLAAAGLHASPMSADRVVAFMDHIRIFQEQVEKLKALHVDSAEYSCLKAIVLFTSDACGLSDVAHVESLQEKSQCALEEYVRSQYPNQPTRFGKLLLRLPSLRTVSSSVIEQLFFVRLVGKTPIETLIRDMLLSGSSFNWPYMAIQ
Put plainly: Luminescence-based cell-based high throughput dose response assay to identify inhibitors of COUP-TFII (NR2F2). The format is functional.

Assay [12] concerns HEK293. Put plainly: cells. The note with it: Homo sapiens. It is filed as functional, cell-based.
In another assay the test system is INS1. Kind of assay: beta cell apoptosis inhibitors, cytokine rescue, dose response, luminescence, retest (AID 449756).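 Note: cell death triggered by IL-1 beta plus TNF-alpha plus IFN-gamma mixture; protective hits raise ATP signal compared with cytokine alone wells.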 The note with it: Rattus norvegicus. The format is functional, cell-based.
The next assay concerns the target Galanin receptor type 3 (Homo sapiens, UniProt O60755). Put plainly: Fluorescence-based cell-based primary high throughput dose response assay to identify antagonists of the Galanin Receptor 3 (GalR3). It is filed as functional.
A further assay is described as follows: cells. The note with it: HEK-CNG. It is filed as functional, cell-based.
Assay [13] deals with HEK293. Kind of assay: cells. The note with it: Homo sapiens.
Assay [14] relates to HEK293. Put plainly: cells. The format is functional, cell-based. The note with it: Homo sapiens. This is another data set of the same source.
For assay [15], the system named is HEK293. Put plainly: NOD1 signaling inhibitors, primary screen, cell-based, luminescence, uHTS (AID 1578). It is filed as functional. The note with it: Homo sapiens.
Assay [16] concerns HEK293. Kind of assay: NOD2 signaling inhibitors in MDP-stimulated cells, cell-based, uHTS, luminescence (AID 2001). The format is functional. The note with it: Homo sapiens.
Assay [17] concerns the target T2, Nucleotide-binding oligomerization domain-containing protein 1 (Homo sapiens, UniProt Q9Y239).
T2 sequence (Q9Y239 whole entry): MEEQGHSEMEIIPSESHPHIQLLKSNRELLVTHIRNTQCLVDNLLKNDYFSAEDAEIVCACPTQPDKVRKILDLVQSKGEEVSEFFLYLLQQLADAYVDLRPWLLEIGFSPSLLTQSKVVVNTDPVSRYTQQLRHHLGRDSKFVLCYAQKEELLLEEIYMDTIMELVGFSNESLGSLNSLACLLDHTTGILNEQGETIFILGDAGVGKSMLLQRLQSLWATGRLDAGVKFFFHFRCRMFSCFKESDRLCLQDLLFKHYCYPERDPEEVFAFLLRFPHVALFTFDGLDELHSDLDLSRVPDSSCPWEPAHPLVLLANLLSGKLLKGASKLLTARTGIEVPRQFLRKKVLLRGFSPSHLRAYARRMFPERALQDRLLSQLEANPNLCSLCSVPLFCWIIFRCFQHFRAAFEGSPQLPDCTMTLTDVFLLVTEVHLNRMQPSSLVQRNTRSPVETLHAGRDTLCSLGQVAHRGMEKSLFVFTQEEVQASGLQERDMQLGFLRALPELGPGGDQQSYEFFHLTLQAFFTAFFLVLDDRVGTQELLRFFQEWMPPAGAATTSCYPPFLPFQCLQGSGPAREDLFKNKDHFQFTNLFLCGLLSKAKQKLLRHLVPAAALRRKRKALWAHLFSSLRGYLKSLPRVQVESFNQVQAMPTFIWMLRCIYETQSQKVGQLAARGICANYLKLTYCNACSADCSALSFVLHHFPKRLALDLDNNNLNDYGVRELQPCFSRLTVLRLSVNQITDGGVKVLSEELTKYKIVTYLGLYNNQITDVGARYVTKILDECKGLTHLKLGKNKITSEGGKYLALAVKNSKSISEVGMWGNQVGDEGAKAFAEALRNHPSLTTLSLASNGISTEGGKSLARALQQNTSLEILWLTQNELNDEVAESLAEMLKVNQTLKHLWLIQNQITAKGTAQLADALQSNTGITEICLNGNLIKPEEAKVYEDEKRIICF
Kind of assay: NOD1 signaling inhibitors, SAR follow-up, revised (AID 2333). It is filed as functional.

Activity calls are given as the source filed them.

Sequence of Galanin receptor type 3 (O60755 whole entry): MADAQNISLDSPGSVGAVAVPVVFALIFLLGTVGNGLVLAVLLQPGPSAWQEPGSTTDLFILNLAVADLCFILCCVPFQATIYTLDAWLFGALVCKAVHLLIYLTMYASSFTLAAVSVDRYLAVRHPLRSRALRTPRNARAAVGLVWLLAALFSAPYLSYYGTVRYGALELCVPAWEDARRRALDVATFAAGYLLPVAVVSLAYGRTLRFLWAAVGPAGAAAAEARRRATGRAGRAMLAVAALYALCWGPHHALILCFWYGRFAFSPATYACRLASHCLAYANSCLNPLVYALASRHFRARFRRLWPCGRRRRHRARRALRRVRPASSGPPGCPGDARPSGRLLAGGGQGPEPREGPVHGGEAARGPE
Sequence of Tumor necrosis factor (P01375 whole entry): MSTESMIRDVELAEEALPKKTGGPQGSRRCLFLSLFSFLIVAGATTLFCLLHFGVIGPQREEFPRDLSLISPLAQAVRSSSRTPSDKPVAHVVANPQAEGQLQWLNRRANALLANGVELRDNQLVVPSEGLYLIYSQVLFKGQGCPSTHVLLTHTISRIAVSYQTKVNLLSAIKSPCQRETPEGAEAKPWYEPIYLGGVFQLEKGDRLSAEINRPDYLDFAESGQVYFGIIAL
Sequence of Paired box protein Pax-8 (Q06710 whole entry): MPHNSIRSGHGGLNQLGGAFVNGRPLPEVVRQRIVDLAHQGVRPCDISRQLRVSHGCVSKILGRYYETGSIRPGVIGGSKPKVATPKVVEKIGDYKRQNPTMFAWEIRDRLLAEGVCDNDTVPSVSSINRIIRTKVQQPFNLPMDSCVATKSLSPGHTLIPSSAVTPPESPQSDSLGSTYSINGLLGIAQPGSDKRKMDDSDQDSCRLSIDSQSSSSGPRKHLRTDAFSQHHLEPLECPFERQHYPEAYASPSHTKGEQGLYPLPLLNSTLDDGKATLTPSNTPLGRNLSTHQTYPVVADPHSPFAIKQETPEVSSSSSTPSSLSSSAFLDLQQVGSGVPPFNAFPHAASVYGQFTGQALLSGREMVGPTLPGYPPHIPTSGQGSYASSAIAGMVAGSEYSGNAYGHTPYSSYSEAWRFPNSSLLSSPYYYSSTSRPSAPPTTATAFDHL

In general, AC50 refers to the concentration giving half of the maximal activity seen. For the compound `COc1ccc(S(=O)(=O)Nc2ccc3c(c2)C(=O)N([C@@H](C)CO)C[C@H](C)[C@@H](CN(C)C(=O)Nc2ccc(C(F)(F)F)cc2)OCCCC[C@@H](C)O3)cc1`, the AC50 was 9.96 µM (active) at Paired box protein Pax-8, 20.5 µM (active) in assay [1], 29.6 µM (active) in assay [2] and 41.5 µM (active) in assay [3].

As a reminder, the EC50 is the midpoint of the concentration-response curve. For the compound `Cc1cccc(NC(=O)c2ccc3c(c2)OCCO3)c1`, the values for the concentration giving a half-maximal response (EC50) in assay [4] and in [6] were 6.2 µM (active) and 6.74 µM (active), respectively. Moreover, the half-maximal activity concentration (AC50) is 9.29 µM (active) in assay [5]; > 52 µM (inactive) in assay [7]; > 52 µM (inactive) in assay [8]; 7.92 µM (active) in [9]; > 52 µM (inactive) in assay [10].

As usually defined, the IC50 is the midpoint of a concentration-inhibition curve. Regarding `C=CCC1(CC=C)CCCN1C(=O)c1cc(COc2ccc(C)nc2)on1`, the IC50 at Tumor necrosis factor was 4.24 µM (active); in [11], 11.8 µM (inactive); in the assay on HEK293 [12], 14.1 µM (active); at Galanin receptor type 3 it was 1.25 µM (active); with HEK293 [13], 19 µM (active); in the assay with HEK293 [14], 4.44 µM (active). Moreover, the IC50 in the assay on HEK293 [16] was 7.3 µM (active); in [17], 2.67 µM (active). In the assay with INS1, the AC50 was 2.13 µM (active). In addition, the EC50 in the assay “cells” is > 29.9 µM (inactive); in the assay on HEK293 [15], 2.7 µM (active).
